Laboratory results published in patent US20130096100A1, “DI(ARYLAMINO)ARYL COMPOUND” (ASTELLAS PHARMA INC., priority 2007, published 2013).

How the values were obtained:
[1] = biological target: T1, EML4-ALK fusion protein v1 (Homo sapiens, UniProt Q9UM73, D1529E/I1461V/K1491R); assay: Inhibitory activity against the kinase activity of EML4-ALK fusion protein v1 (Test Example 1); type: biochemical; details: ATP 100 μM, reaction 1 hour, HTRF KinEASE-TK
T1 construct: FLAG (N); made in house
Description: EML4-ALK fusion protein v1 (purified from BA/F3 cells expressing EML4-ALK fusion protein v1) was investigated for its phosphorylation activity toward a peptide substrate by using a kinase activity detection kit (HTRF KinEASE-TK; Cisbio Inc.). […] The ATP concentration used was 100 μM. Another reaction solution was prepared to contain the enzyme protein but no test compound (in which the solvent DMSO alone was added at 0.4% in place of the test compound), followed by reaction in the same manner with or without ATP addition. […] The concentration causing 50% inhibition (IC50) was calculated for each test compound by the logistic regression method.
N-terminally FLAG-tagged EML4-ALK fusion protein v1 was inserted into a vector pMX-iresCD8 capable of co-expression of insert cDNA and cell surface antigen CD8 (J. Biol. Chem., 2001, vol. 276, p. 39012-39020) to create a vector FLAG-EML4-ALKv1/pMX-iresCD8 expressing both FLAG-EML4-ALKv1 and CD8. FLAG-EML4-ALKv1/pMX-iresCD8 was used to create a recombinant retrovirus in the same manner as described above and infected into mouse lymphoid cell line BA/F3 cells. Using a magnetic bead reagent for cell separation and a purification column (anti-CD8 monoclonal antibody immobilized on magnetic beads and a MiniMACS purification column; both are products of Miltenyi Biotec Inc.), cell surface CD8-expressing cells were purified conveniently. […] After washing 3 times with PBS, the cells were lysed in a lysis solution (50 mM Tris.HCl (pH 7.4), 150 mM NaCl, 1% Triton X100, 5 mM EDTA, 5 mM EGTA, 1 mM NaVO4, 1 mM DTT and protease inhibitor cocktail complete). The EML4-ALK fusion protein v1 present in the supernatant obtained after centrifugation was purified using ANTI-FLAG M2 Affinity Gel (SIGMA-ALDRICH Inc.) according to the method described in the product information document.
The EML4-ALK fusion protein v1 purified as above was investigated for its phosphorylation activity toward a peptide substrate using a kinase activity detection kit (HTRF KinEASE-TK; Cisbio Inc.). Using TK substrate 1, which was included in the kit, as the substrate, and after adding no ATP or 100 μM ATP, the mixtures were reacted at room temperature for 1 hour, and the count of HTRF was detected as recommended by the Kits manufacturer.

[2] = biological target: T2, Mutant EGFR (L858R) protein (Homo sapiens, UniProt P00533, L858R); assay: Inhibitory activity against the kinase activity of mutant EGFR (L858R) protein (Test Example 2); type: biochemical; details: ATP 5 μM, reaction 1 hour, HTRF KinEASE-TK
T2 construct: purchased Cana Biosciences Inc., Japan (sic; Carna Biosciences)
T2 sequence (P00533 25-1210 L858R): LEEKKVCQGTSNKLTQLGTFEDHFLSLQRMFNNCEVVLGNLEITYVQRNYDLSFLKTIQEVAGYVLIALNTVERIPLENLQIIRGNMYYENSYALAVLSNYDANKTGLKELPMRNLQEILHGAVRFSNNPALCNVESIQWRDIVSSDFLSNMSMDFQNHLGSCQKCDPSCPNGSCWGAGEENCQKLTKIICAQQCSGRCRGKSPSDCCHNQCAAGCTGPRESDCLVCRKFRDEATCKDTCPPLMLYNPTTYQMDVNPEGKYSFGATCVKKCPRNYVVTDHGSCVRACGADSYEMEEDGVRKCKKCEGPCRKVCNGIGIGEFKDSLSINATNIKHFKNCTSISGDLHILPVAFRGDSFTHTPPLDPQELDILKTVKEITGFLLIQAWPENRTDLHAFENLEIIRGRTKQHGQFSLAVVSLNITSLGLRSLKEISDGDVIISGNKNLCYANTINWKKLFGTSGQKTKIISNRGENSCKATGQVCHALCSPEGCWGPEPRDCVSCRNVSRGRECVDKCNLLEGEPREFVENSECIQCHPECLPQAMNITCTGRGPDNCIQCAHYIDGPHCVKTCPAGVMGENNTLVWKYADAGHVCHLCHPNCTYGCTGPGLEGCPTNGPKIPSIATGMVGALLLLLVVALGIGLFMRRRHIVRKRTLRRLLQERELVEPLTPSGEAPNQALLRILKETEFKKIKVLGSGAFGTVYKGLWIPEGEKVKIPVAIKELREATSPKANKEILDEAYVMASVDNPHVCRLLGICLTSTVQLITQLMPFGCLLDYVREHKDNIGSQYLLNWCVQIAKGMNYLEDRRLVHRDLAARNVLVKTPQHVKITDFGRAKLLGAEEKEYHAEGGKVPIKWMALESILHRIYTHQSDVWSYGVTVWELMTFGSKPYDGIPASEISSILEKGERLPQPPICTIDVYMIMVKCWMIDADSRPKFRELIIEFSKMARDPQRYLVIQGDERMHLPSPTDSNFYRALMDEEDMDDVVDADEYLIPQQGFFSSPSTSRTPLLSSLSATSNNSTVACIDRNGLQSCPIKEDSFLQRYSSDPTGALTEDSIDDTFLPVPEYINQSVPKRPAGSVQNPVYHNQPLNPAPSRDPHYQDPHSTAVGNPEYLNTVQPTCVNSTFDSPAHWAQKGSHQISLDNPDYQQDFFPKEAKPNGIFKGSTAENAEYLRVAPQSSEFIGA
Description: The ATP concentration used was 5 μM. Another reaction solution was prepared to contain the enzyme protein but no test compound (in which the solvent DMSO alone was added at 0.4% in place of the test compound), followed by reaction in the same manner with or without ATP addition. […] The concentration causing 50% inhibition (IC50) was calculated for each test compound by the logistic regression method.

[3] = system: human non-small cell lung cancer cell line NCI-H2228 cells (EML4-ALK fusion protein-expressing cells); assay: Inhibitory effect against anchorage-independent cell growth of NCI-H2228 cells (Test Example 3); type: cell-based; details: 120 h, spheroid plate, 5 days, CellTiter-Glo
Text: Measurement for anchorage-independent cell growth (colony method, etc) has been known to be a system for investigating the anticancer action (pharmacological effect) of test compounds (Clinical Oncology, second edition, Cancer and Chemotherapy Publishers Inc.). In place of the colony method, there is a following method using spheroid plates for measuring the growth of non-attached cells.
In a 96-well spheroid plate (Sumilon Celltight Spheroid 96U; Sumitomo Bakelite Co., Ltd., Japan), human non-small cell lung cancer cell line NCI-H2228 cells were seeded at 2000 cells per well in RPMI1640 medium (Invitrogen) containing 10% fetal bovine serum. NCI-H2228 cells are those expressing another EML4-ALK fusion protein, which is different from the EML4-ALK fusion protein v1 because it is encoded by an EML4-ALK fusion polynucleotide whose fusion point on EML4 cDNA is different from that of the EML4-ALK fusion polynucleotide v1, but whose ALK region is the same as that of the EML4-ALK fusion polynucleotide v1. The above NCI-H2228 cells seeded in the plate were cultured overnight under 5% CO2 at 37° C., followed by addition of a test compound (final concentration: 10 μM to 1 nM). As a negative control, DMSO used as a solvent was added at the same concentration as the test compound. Then, the cells were cultured under 5% CO2 at 37° C. for 5 days. A cell counting reagent (CellTiter-Glo™ Luminescent Cell Viability Assay; Promega) was added and agitated for 20 minutes, followed by measurement with a luminometer (ML3000 microtiter plate luminometer; Dynatech Laboratories).

NCI-H2228 cells (tumor) = assay: Antitumor test (in vivo) on NCI-H2228 cells (Test Example 8); details: oral 3 mg/kg once a day for 14 days, NOD/SCID mice; tumor volume
Description: 3×10^6 cells of NCI-H2228 cells suspended in PBS were inoculated subcutaneously by injection to the back of 5 weeks old male NOD/SCID mice (Charles River Japan, Inc.). After 3 weeks of the inoculation, the administration of test compounds was initiated. The test was conducted in the solvent group and test compound groups, 6 animals per group. The test compounds were each dissolved in a solvent composed of 10% 1-methyl-2-pyrrolidinone (SIGMA-ALDRICH Inc.)/90% polyethylene glycol 300 (Fluka Inc.) and administered orally at a dose of 3 mg/kg. Administrations were performed once a day for 14 days, and body weight and tumor size were measured every other day. Tumor volume was calculated using the following formula.
[Tumor volume (mm^3)]=[Tumor major axis (mm)]×[tumor minor axis (mm)]^2×0.5

T1 sequence (Q9UM73 with tags, fused parts or gaps I1461V/K1491R/D1529E): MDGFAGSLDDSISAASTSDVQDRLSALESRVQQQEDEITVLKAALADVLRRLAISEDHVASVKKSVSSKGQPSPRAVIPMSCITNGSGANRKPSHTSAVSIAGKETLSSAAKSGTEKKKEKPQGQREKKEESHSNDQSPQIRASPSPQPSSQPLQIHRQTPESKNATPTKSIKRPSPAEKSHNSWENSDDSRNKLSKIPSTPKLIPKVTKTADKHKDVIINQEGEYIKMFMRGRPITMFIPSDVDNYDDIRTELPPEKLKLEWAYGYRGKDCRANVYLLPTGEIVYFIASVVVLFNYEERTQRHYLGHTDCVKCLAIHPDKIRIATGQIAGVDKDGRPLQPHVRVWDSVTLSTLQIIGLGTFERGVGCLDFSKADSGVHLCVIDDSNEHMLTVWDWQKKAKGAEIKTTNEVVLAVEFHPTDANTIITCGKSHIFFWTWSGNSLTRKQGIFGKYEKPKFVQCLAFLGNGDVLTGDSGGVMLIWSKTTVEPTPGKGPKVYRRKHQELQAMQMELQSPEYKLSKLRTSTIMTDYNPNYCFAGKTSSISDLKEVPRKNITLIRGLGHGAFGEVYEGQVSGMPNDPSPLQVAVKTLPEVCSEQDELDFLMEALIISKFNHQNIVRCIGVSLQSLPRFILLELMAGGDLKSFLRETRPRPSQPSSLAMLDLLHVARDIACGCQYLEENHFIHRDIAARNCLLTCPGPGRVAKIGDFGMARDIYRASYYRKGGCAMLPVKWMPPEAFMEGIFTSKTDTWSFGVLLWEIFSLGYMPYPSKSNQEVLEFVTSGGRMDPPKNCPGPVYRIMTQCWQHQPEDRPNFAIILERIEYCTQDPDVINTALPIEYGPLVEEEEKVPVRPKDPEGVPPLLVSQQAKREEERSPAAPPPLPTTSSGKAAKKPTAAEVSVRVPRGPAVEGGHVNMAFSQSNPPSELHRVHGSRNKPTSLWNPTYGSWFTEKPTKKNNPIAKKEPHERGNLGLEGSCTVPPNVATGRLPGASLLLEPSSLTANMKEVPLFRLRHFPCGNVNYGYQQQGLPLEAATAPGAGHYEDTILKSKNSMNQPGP

SMILES | IC50 [1] [nM] | IC50 [2] [nM] | IC50 [3] [nM] | inhibition of the growth of NCI-H2228 cells (tumor) (NCI-H2228 cells (tumor)) [%]
COc1cc(N2CCC(N3CCN(C)CC3)CC2)ccc1Nc1ncnc(Nc2ccccc2S(=O)(=O)C(C)C)n1 [Example 23] | 17 | 120 | 71 | 116
CCNS(=O)(=O)c1ccccc1Nc1ncnc(Nc2ccc(N3CCC(N4CCN(C)CC4)CC3)cc2OC)n1 [Example 123] | 33 | 100 | 30 | 108
